Experimental data from the NIST ThermoML archive (doi:10.1016/j.jct.2017.04.017).
Numbers after ± are expanded uncertainties.

What was measured:
[1] = Crystal; DTA
[2] = Molar enthalpy of transition or fusion; conditions: Crystal; DSC

With O=C(Nc1ccccc1-c1ccc(Cl)cc1)c1cccnc1Cl [Boscalid] the Normal melting temperature [1] was 146.73 ± 0.61 °C and the “Molar enthalpy of transition or fusion” value [2] was 8.9 ± 0.335 kcal/mol.
